# Data taken from patent US20060189663A1, “Pyrrole-2,5-dithione derivatives as liver x receptor modulators” (AstraZeneca AB, priority 2003, published 2006).
# System: T1, LXRalpha and/or beta
# T1 construct: fused on or other part: His-tag (6xHis) on the LXR-LBD
# Test: Co-activator recruitment assay (time-resolved fluorescence, LXR-LBD / SRC-1 peptide)
# Format: biochemical, human
# Details: LXR isoform (alpha or beta) not stated; 22-R Hydroxycholesterol at 50 μM as 100% control; read-out: EC50 in coactivator recruitment assays
# Source text: Co-Activator Recruitment Assay The Ligand Binding Domain (LBD) of human LXRalpha (amino acid 205-447) and LXRbeta (amino acid 216-461) was produced by recombinant techniques in E coli. A fragment of the human Steroid Receptor Co-Activator-1 (SRC-1) was produced as a synthetic peptide. An anti-6His-antibody coupled with Europium (Eu^3+) was used to recognize the His-tag on the LXR-LBD and Allophycocyanin (APC) coupled to streptavidin was used to recognize the biotinylated SRC-1. Agonist binding to LXRalpha or LXRbeta enhances the affinity of LXR towards SRC-1 and thereby brings Eu^3+ and APC in close proximity. Eu^3+ is excited at 337 nm and emitts light at 620 nm. This emission, when in close proximity, excites APC to emit light at 665 nm.
# Dilution plates with compounds in DMSO were further diluted in buffer {20 mM [Tris(hydroxymethyl)aminomethane] pH 7.5, 0.125% CHAPS {3-[(3-Cholamidopropyl)dimethylammonio]-1-propanesulfonate}, 2 mM DTT (Dithiothreitol) and 0.05% BSA (Bovine Serum Albumin)} in order to reduce DMSO concentration, 0.5 μl to 13.5 μl. To this, 6 μl assay mix was added and the plates (384-well V-groove plates) were incubated at room temperature for 60 to 80 min. […] Time-resolved fluorescence readings were done in a Wallac Victor reader at 665 nm followed by reading at 615 nm. […]
row,EC50 [nM],Structure (SMILES)
1,90,"CCCCN1C(=O)C(c2ccccc2)=C(Nc2ccc(OC)cc2)C1=S [Example 7, 1-Butyl-4-[(4-methoxyphenyl)amino]-3-phenyl-5-thioxo-1,5-dihydro-2H-pyrrol-2-one]"
2,140,"Nc1ccc(CN2C(=S)C(Nc3ccc(OC(F)F)cc3)=C(c3ccccc3)C2=S)cn1 [Example 18, 1-[(6-Aminopyridin-3-yl)methyl]-3-{[4-(difluoromethoxy)phenyl]amino}-4-phenyl-1H-pyrrole-2,5-dithione]"
